Assay results reported in paper PMC12888861, “Antibacterial activity of enmetazobactam against Acinetobacter spp.: a molecular dissection of mechanism of action and resistance determinants” (Antimicrobial Agents and Chemotherapy, 2025).

Test system: carbapenem-resistant A. baumannii (CRAB) isolates (n = 67)
Test: MIC, broth microdilution (EUCAST), carbapenem-resistant A. baumannii isolates
Type: cell-based, Acinetobacter baumannii
Settings: ETZ fixed 8 mg/L in combinations; for MIC: Acinetobacter baumannii
Source text: The bacterial strains used in this study comprised 208 clinical isolates from the Spanish National Acinetobacter spp. 2020 Multicenter Collection, which was previously characterized in detail by our research group, including whole-genome sequencing, phylogenetics studies, clonal dynamics, and resistance mechanisms ([2], [29]). Additionally, a collection of A. baumannii ATCC 17978 transformants coding the blaOXA-23, blaOXA-24/40, blaOXA-51, blaOXA-58, blaOXA-143, and blaOXA-201 genes, previously constructed and described by our group ([30]), was used to determine the activity of enmetazobactam against strains carrying the main CHDLs of A. baumannii.
The antimicrobial susceptibility of the 208 Acinetobacter spp. isolates was assessed using the broth microdilution method, as described in the European Committee on Antimicrobial Susceptibility Testing (EUCAST) v.15 guidelines (http://www.eucast.org/clinical_breakpoints). […] MICs for enmetazobactam alone were assessed as well. […] Subsequently, MIC testing was also conducted with a collection of A. baumannii ATCC 17978 transformants expressing clinically relevant OXA-like carbapenemase genes.
The A. baumannii ATCC 19606 strain was used as the reference strain in all susceptibility experiments, in duplicate assays. Antibiotics were purchased from Sigma-Aldrich, except enmetazobactam and durlobactam, which were obtained from Advanz Pharma and MedChemExpress, respectively.

`CO/N=C(\C(=O)N[C@@H]1C(=O)N2C(C(=O)[O-])=C(C[N+]3(C)CCCC3)CS[C@H]12)c1csc(N)n1` [cefepime] gave an MIC (isolate Ab56, ST 1, ADC-75, OXA-69, OXA-23) of 32 µg/mL, an MIC (isolate Ab83, ST 25, ADC-5, OXA-64, OXA-23) of 64 µg/mL and an MIC (isolate Ab109, ST 1, ADC-75, OXA-69, OXA-23) of 64 µg/mL. The MIC (isolate Ab133, ST 2, ADC-30, OXA-66, OXA-58, TEM-12) was 32 µg/mL, the MIC (isolate Ab134, ST 2, ADC-30, OXA-66, OXA-58, TEM-12) was 16 µg/mL and the MIC (isolate Ab137, ST 85, ADC-2, OXA-94, OXA-23) was 64 µg/mL. It also gave an MIC (isolate Ab138, ST 745, ADC-30, OXA-66, OXA-58) of 32 µg/mL, an MIC (isolate Ab140, ST 85, ADC-2, OXA-94, OXA-23) of 32 µg/mL and an MIC (isolate Ab141, ST 745, ADC-30, OXA-66, OXA-58) of 32 µg/mL. The MIC (isolate Ab144, ST 745, ADC-30, OXA-66, OXA-58) was 32 µg/mL, the MIC (isolate Ab169, ST 2, ADC-30, OXA-66, OXA-23) was 32 µg/mL and the MIC (isolate Ab171, ST 2, ADC-30, OXA-66, OXA-23) was 32 µg/mL. It also gave an MIC (isolate Ab173, ST 2, ISAba1-ADC-30, OXA-66, OXA-23) of no less than 128 µg/mL, an MIC (isolate Ab174, ST 2, ADC-30, OXA-66, OXA-23) of 32 µg/mL and an MIC (isolate Ab179, ST 2, ADC-30, OXA-66, OXA-23) of 64 µg/mL. It also gave an MIC (isolate Ab180, ST 2, ADC-30, OXA-66, OXA-24/40) of 16 µg/mL, an MIC (isolate Ab181, ST 2, ADC-30, OXA-66, OXA-23) of 32 µg/mL and an MIC (isolate Ab182, ST 2, ADC-30, OXA-66, OXA-23) of 16 µg/mL. The MIC (isolate Ab183, ST 2, ADC-30, OXA-66, OXA-23) was 32 µg/mL, the MIC (isolate Ab184, ST 2, ADC-30, OXA-66, OXA-23) was no less than 128 µg/mL and the MIC (isolate Ab186, ST 2, ADC-30, OXA-66, OXA-23) was 32 µg/mL. It also gave an MIC (isolate Ab191, ST 2, ADC-30, OXA-66, OXA-23) of 32 µg/mL, an MIC (isolate Ab192, ST 2, ADC-30, OXA-66, OXA-23) of 32 µg/mL and an MIC (isolate Ab194, ST 2, ADC-30, OXA-66, OXA-23) of 32 µg/mL. For the same compound, the MIC (isolate Ab199, ST 2, ADC-30, OXA-66, OXA-23) was 32 µg/mL, the MIC (isolate Ab201, ST 2, ADC-30, OXA-66, OXA-23) was 64 µg/mL and the MIC (isolate Ab204, ST 2, ADC-30, OXA-66, OXA-23) was 16 µg/mL. The “MIC distribution 0.12” value (cumulative share of CRAB isolates (n = 67) at MIC 0.12 mg/L) was 0, the “MIC distribution 0.25” value (cumulative share of CRAB isolates (n = 67) at MIC 0.25 mg/L) was 0 and the “MIC distribution 0.5” value (cumulative share of CRAB isolates (n = 67) at MIC 0.5 mg/L) was 0. The “MIC distribution 1” value (cumulative share of CRAB isolates (n = 67) at MIC 1 mg/L) was 0, the “MIC distribution 2” value (cumulative share of CRAB isolates (n = 67) at MIC 2 mg/L) was 0 and the “MIC distribution 4” value (cumulative share of CRAB isolates (n = 67) at MIC 4 mg/L) was 1.5. The “MIC distribution 8” value (cumulative share of CRAB isolates (n = 67) at MIC 8 mg/L) was 3.0, the “MIC distribution 16” value (cumulative share of CRAB isolates (n = 67) at MIC 16 mg/L) was 22.4 and the “MIC distribution 32” value (cumulative share of CRAB isolates (n = 67) at MIC 32 mg/L) was 70.1. For the same compound, the “MIC distribution 64” value (cumulative share of CRAB isolates (n = 67) at MIC 64 mg/L) was 97.0.
